Literature values as cited in patent US20030083286A1, “Bioadhesive compositions and methods for enhanced intestinal drug absorption” (priority 2001, published 2003).
Where two headings read alike, the source gives them in different places. In the oligonucleotide strings, read from the 5' end, every base follows the letter of its sugar. An asterisk marks phosphorothioate; unmarked linkages are phosphodiester. Other units and linkages are bracketed, terminal groups are in braces. A string of capitals states the bases alone. d = 2'-deoxy (DNA)

What was measured:
ICAM-1 [1] = conditions: C8161 human melanoma cells
[2] = not given; remark: listed apart in the source
ICAM-1 [3] = tested on: ICAM-1
[4] = tested on: ICAM-1 over HLA-A and HLA-B; conditions: versus HLA-A and HLA-B

Substance	enhanced metastatic ability of C8161 cells resulting from TNF-α treatment (C8161 cells; TNF-α treated cells)	metastatic potential of C8161 cells (C8161 cells; in vivo)	activity against Crohn's disease in humans (humans)	steroid-sparing effect on treated subjects (humans, five months post-treatment weaned from steroids and in remission)	safety in humans (in vivo)	ICAM-1 expression (mRNA levels, northern blot) (ICAM-1 [1])	anti-inflammatory effects in animal testing ([2]; Crohn's disease, rheumatoid arthritis, psoriasis, ulcerative colitis, kidney transplant rejection)	biological activity in animal models of inflammatory disease ([2]; in vivo)	ICAM-1 expression (ICAM-1 [3]; human epidermal carcinoma cells (A431))	ICAM-1 expression (ICAM-1 [3]; human keratinocytes)	ICAM-1 expression (ICAM-1 [3]; human lung carcinoma cells (A549))	ICAM-1 expression (ICAM-1 [3]; human umbilical vein cells)	specificity for target ICAM-1 over other potential nucleic acid targets [4]
ISIS 2302: 2′-deoxyoligonucleotide, phosphorothioate backbone, 5′-GCC-CAA-GCT-GGC-ATC-CGT-CA-3′ (SEQ ID NO:1), targeted to 3′-UTR of human ICAM-1 gene (antisense dG*dC*dC*dC*dA*dA*dG*dC*dT*dG*dG*dC*dA*dT*dC*dC*dG*dT*dC*dA)	eliminated the enhanced metastatic ability	decreased the metastatic potential	activity against Crohn's disease	statistically significant steroid-sparing effect	good safety	markedly reduced ICAM-1 expression	strong anti-inflammatory effects	significant biological activity	inhibit ICAM-1 expression	inhibit ICAM-1 expression	inhibit ICAM-1 expression	inhibit ICAM-1 expression	demonstrated specificity
ISIS 1939: 2′-oligodeoxynucleotide, phosphorothioate backbone, 5′-CCC-CCA-CCA-CTT-CCC-CTC-TC-3′ (SEQ ID NO:2), targeted to 3′-UTR of human ICAM-1 gene (antisense CCCCCACCACTTCCCCTCTC; DNA, all phosphorothioate, methylation of C not given here)						markedly reduced ICAM-1 expression							
